The results in this text go back to patent US20220104495A1, “THEOPHYLLINE DERIVATIVES WITH NEMATOCIDAL ACTIVITY, THEIR AGRONOMIC COMPOSITIONS AND RELATIVE USE” (ISAGRO S.p.A., priority 2019, published 2022).

The experiment concerns Meloidogyne sp. Description: Determination of the nematocidal activity against Meloidogyne sp. (potted tomato, greenhouse). Type of experiment: in vivo. To be noted: for PLANT DEVELOPMENT (fresh weight g) / INFESTED ROOT % / reduction in parasitosis at the root level (in words) / GALL INDEX (scale 0-10): tomatoes, cv Marmande; for PLANT DEVELOPMENT (fresh weight g) / INFESTED ROOT % / GALL INDEX (scale 0-10): dose 4,000 g/hectare, survey 30 days after transplantation; for PLANT DEVELOPMENT (fresh weight g): infested blank 13; for INFESTED ROOT %: infested blank 70; for reduction in parasitosis at the root level (in words): 4,000 g/hectare, 30 days, comment on Table 6; for GALL INDEX (scale 0-10): Bridge-Page scale, 0 = 0% of root affected, 10 = 100% infested root, infested blank 7. On the procedure:
The tests aimed at testing the nematocidal activity of the product under examination are carried out using inocula taken from a cultivation of Meloidogyne sp. maintained on potted tomato and cucumber plants and grown in a greenhouse.
In order to carry out the experiments, portions of roots having a large number of galls and soil are taken from the infested pots, in which larvae are present starting from the second stage of age.
New pots having a diameter of 15 cm are half-filled with sterile earth. The portions of infested roots, previously cleaned, are placed on it to be able to correctly assess the degree of infestation and ensure that each pot contains the same nematic charge. 200-300 g of infested soil are then added, which are covered with a thin layer of sterile earth.
The treatment is carried out by pouring 100 ml of hydroacetonic solution onto the surface of the soil in which the product to be tested has been dissolved to obtain a concentration ranging from 70 to 100 ppm.
Tomato or cucumber seedlings at the stage of two or three actual leaves are transplanted in the pots thus prepared, after one or seven days from the application. Different cultivars of tomatoes (Microtom, Marmande) or cucumbers (Lungo della Cina) are used, having a different sensitivity to the parasite and different times of growth. In particular, for estimating the final production, a variety of ornamental tomatoes (cv Microtom) is used, whose seedlings are small in size and able to reach the maturity of the fruit in about two months in pots and under greenhouse conditions.
The containment capacity of the parasite is detected, 30 and 60 days after the transplantation, considering the development of the plant (whose fresh weight is detected) and the presence of galls on the roots.
This is estimated using both the infestation scale proposed by Bridge-Page (Tropical Pest Management 26 (3): 296-298, September 1980), according to which the value zero corresponds to 0% of root affected and the value 10 corresponds to 100% of infested root, and also considering the percentage of root mass affected.
Table 6 indicates the results relating to the effectiveness of Compounds Nr.

Consider `Cn1c(=O)c2c(ncn2C)n(C)c1=O` [Caffeine, caffeine, reference compound], for which the “PLANT DEVELOPMENT (fresh weight g)” value was 12 g and the “INFESTED ROOT %” value is recorded as 70%. Moreover, where the note is “attack of the parasite and formation of galls on the root system, conditions not given”, the “nematocidal activity of caffeine as verified by the Applicant (in words)” value is on record as “unsatisfactory from the point of view of nematocidal activity”.
`Cn1c(=O)c2c(ncn2CC(=O)OCCC(F)=C(F)F)n(C)c1=O` [Comp. Nr. 21, 3,4,4-trifluorobut-3-en-1-yl (1,3-dimethyl-2,6-dioxo-1,2,3,6-tetrahydro-7H-purin-7-yl) acetate]: the “reduction in parasitosis at the root level (in words)” value is “decisive reduction in parasitosis at the root level”, the “GALL INDEX (scale 0-10)” value was determined as 2, the “PLANT DEVELOPMENT (fresh weight g)” value is on record as 20 g and the “INFESTED ROOT %” value is 20%.
With `Cn1c(=O)c2c(ncn2CC[S+]([O-])CCC(F)=C(F)F)n(C)c1=O` (centres unmarked) [Comp. Nr. 8, 1,3-dimethyl-7-[2-(3,4,4-trifluorobut-3-ene-1-sulfinyl)ethyl]-3,7-dihydro-1H-purin-2,6-dione], the “GALL INDEX (scale 0-10)” value amounted to 5, the “PLANT DEVELOPMENT (fresh weight g)” value is on record as 17 g and the “INFESTED ROOT %” value was determined as 50%.
On to `Cn1c(=O)c2c(ncn2CCS(=O)(=O)CCC(F)=C(F)F)n(C)c1=O` [Comp. Nr. 11, 1,3-dimethyl-7-[2-(3,4,4-trifluorobut-3-ene-1-sulfonyl)ethyl]-3,7-dihydro-1H-purin-2,6-dione], for which the “reduction in parasitosis at the root level (in words)” value was “decisive reduction in parasitosis at the root level”, the “GALL INDEX (scale 0-10)” value is recorded as 4.5, the “PLANT DEVELOPMENT (fresh weight g)” value stood at 16 g and the “INFESTED ROOT %” value is on record as 45%.
